According to patent publication US8969333B2, “Therapeutic compositions and methods” (The Penn State Research Foundation, priority 2010, dated 2015):
Where two headings read alike, the source gives them in different places.

Columns and labels:
S180 tumor = test: Sarcoma S180 cell-derived mouse tumor model; format: in vivo; conditions: SAHA 5 mg/kg daily for 1 week
Text: A well-established sarcoma S180 cell-derived mouse tumor model is used in this example to determine the effects of PAD4 inhibitors of the present invention on tumor growth in mice.
(§1) S180 ascites tumor cells were used to form solid tumors after subcutaneous injection essentially as described in Wang, W. et al., Mol. Biosyst., 2011, 7:766-772. In brief, for initiation of subcutaneous tumors, the cells were obtained as an ascitic form from the tumor-bearing mice, which were serially transplanted once per week. Subcutaneous tumors were implanted by injecting 0.2 ml of 0.9% saline containing 1×10^7 viable tumor cells under the skin on the right armpit. 24 hr after implantation, male ICR mice were randomly divided into experimental groups. The mice in the positive control group were given a daily i.p injection of 2 mg/kg of doxorubicin in 0.2 ml of 0.9% saline for 7 consecutive days. The mice in the negative control group were given a daily i.p injection of 0.2 ml of 0.9% saline for 7 consecutive days. The mice in the treatment groups were given a daily i.p injection of YW3-56 (10 mg/kg), SAHA (5 mg/kg), or a combination of YW3-56 (5 mg/kg) and SAHA (2.5 mg/kg) for 7 consecutive days. The weights of the mice were recorded every day. 24 hr after the last administration, all mice were weighed, euthanized and immediately dissected to obtain and weigh the tumor and vital organs.

[1] = Body and vital organ weight after 1 week of treatment; format: in vivo, mouse
Method: as §1, with “The mice in the treatment groups were given a daily i.p injection of YW3-56 (10 mg/kg), SAHA (5 mg/kg), or a combination of YW3-56 (5 mg/kg) and SAHA (2.5 mg/kg) for 7 consecutive days.” left out, “24 hr after the last administration, all mice were weighed, euthanized and immediately dissected to obtain and weigh the tumor and vital organs.” left out
FIG. 13A-13F show weight of whole body, FIG. 13A; brain, FIG. 13B; heart, FIG. 13C; liver, FIG. 13D; kidney, FIG. 13E; and spleen, FIG. 13F measured in mice after 1 week of treatment with daily intraperitoneal injection of control PBS, YW3-56 at 10 mg/kg body weight, SAHA at 5 mg/kg body weight, a mixture of YW3-56 at 5 mg/kg body weight and SAHA at 2.5 mg/kg body weight, or doxorubicin at 2 mg/kg body weight. * in (f) denotes a loss of spleen weight after doxorubicin treatment.

[2] = test system: PAD4+/+ mouse neutrophils; test: Histone citrullination, enlarged nucleus and NET formation in PAD4+/+ neutrophils; format: cell-based; conditions: for NET formation, percentage of neutrophils / Histone citrullination, percentage of positive neutrophils / Enlarged nucleus, percentage of neutrophils: PAD4+/+; for NET formation, percentage of neutrophils / Enlarged nucleus, percentage of neutrophils: Cl-amidine 200 μM 30 min prior to LPS; for Histone citrullination, percentage of positive neutrophils: Cl-amidine 200 μM 30 min prior to LPS for 3 hr; for Enlarged nucleus, percentage of neutrophils: nuclear diameter over 1.5 fold larger
Method: (§2) NET formation is induced after lipopolysaccharides (LPS) and phorbol myristate acetate (PMA) treatment in human neutrophils (Brinkmann et al., 2004). To test whether PAD4 is important for chromatin decondensation and NET formation upon LPS treatment, immunostaining experiments are performed. Before LPS treatment, ˜3.69% of PAD4^+/+ neutrophils are positively stained for histone H3 citrullination but NET formation is not detected, while histone H3 citrullination or NET formation is not observed in PAD4^−/− neutrophils. After LPS treatment, an increase in histone H3 citrullination is detected in PAD4^+/+ but not in PAD4^−/− neutrophils by Western blotting or immunostaining analyses. […] The decondensed chromatin induced by LPS is positively stained by histone H3 citrullination and neutrophil elastase antibodies, indicating these structures are indeed NETs. […] Furthermore, chromatin decondensation and histone citrullination are detected in PAD4^+/+ but not in PAD4^−/− neutrophils after PMA treatment.
(§3) Table II illustrates the efficacy of LPS, PMA, and H2O2 in inducing chromatin structure changes in PAD4^+/+ and PAD4^−/− neutrophils. […] PAD4 is required for NET formation after stimulation of neutrophils.

[3] = test system: PAD4-/- mouse neutrophils; test: Histone citrullination, enlarged nucleus and NET formation in PAD4-/- neutrophils; format: cell-based; conditions: U.D. = undetectable
Method: as §2, §3

[4] = test system: U2OS human osteosarcoma cells; test: MTT assay of U2OS cancer cell growth inhibition; format: cell-based; conditions: for IC50: read-out: 50% inhibition Cell growth, U2OS cells, MTT, 72 hr; for U2OS cell growth in MTT assay: 20 μM, 3 days
Method: MIT assays are conducted to evaluate activity to inhibit cancer cell growth. U2OS human osteosarcoma cells were treated with individual compounds at different concentrations for 72 hr in 24-well plates. MIT reagent was added to a final concentration of 0.5 mg/ml and further incubated for 4 hr. The yellow-colored MTT was reduced to insoluble purple-colored Formazan in living cells. Culture medium was removed and DMSO was added to dissolve Formazan into solution. The absorbance of the solution was then measured at 570 nm using a Thermo BioMate™ 3 spectrophotometer. Results are shown in FIG. 1 and average and standard deviations are shown (n>=3).
Cells were treated with individual compounds at different concentrations for 72 hr in 24-well plates. MTT reagent was added to a final concentration of 0.5 mg/ml and further incubated for 4 hr. The yellow-colored MTT was reduced to insoluble purple-colored Formazan in living cells. Culture medium was removed and DMSO was added to dissolve Formazan into solution. The absorbance of the solution was then measured at 570 nm using a Thermo BioMate™ 3 spectrophotometer.

PAD4 = PAD4 (Homo sapiens (Human), UniProt Q9UM07); test: PAD4 enzyme activity colorimetric assay (citrullination of BAEE); format: biochemical; conditions: 0.2 μg PAD4, 5 mM BAEE, 37° C.
PAD4, sequence (Q9UM07 whole entry, species assumed): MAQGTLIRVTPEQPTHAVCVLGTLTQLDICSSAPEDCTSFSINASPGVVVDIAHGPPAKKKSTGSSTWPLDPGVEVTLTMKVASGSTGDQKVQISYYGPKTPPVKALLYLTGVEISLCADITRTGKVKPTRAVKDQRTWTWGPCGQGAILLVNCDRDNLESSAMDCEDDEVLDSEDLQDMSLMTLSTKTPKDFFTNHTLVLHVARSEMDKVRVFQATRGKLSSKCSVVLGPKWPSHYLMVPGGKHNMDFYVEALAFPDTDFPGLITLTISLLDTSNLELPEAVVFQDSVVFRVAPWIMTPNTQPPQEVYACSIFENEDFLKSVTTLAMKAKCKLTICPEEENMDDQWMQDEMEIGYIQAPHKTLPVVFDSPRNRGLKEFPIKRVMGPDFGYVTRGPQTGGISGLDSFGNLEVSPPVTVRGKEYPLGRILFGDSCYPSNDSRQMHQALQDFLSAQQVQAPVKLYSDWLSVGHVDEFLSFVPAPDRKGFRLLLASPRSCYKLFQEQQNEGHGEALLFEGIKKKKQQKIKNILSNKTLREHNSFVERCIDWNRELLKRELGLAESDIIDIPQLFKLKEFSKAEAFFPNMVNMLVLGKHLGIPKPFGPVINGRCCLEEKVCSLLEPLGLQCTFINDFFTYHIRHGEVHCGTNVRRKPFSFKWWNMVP
Method: PAD4 enzyme activity assays are conducted to determine PAD4 inhibitory activity. PAD4 inhibition efficacy of the inhibitors is determined using a colorimetric assay for citrullination production.
The inhibition efficacy of PAD4 inhibitors were determined by colorimetric measurement of citrulline generated by PAD4 catalyzed citrullination of BAEE. 0.2 μg PAD4 was pre-incubated with inhibitors in 100 μl buffer containing 50 mM Tris-HCl pH7.6, 5 mM CaCl2, 2 mM DTT for 0.5 hr at 37° C. The reaction was started by the addition of BAEE to 5 mM and halted 1.5 hr later with the addition of 25 μl 5 M HClO4. Then the samples were briefly centrifuged at 12000 rpm for 2 min at 4° C. and the supernatant (120 μl) were assayed for citrulline by mixing with 120 μl reagent A (0.5% w/v diacetyl monoxime and 15% w/v NaCl in water) and 240 μl reagent B (1% w/v antipyrine, 0.15% w/v ferric chloride, 25% v/v H2SO4 and 25% v/v H3PO4). The mixtures were boiled for 15 min and cooled to room temperature in ice bath. The absorbance of the reagent mixtures at 464 nm was measured by Thermo BioMate™ 3 spectrophotometer. Efficacies of inhibitors are indicated as relative PAD4 citrullination activity by normalizing the PAD4 activity without inhibitor treatment to 100%.

[5] = test system: human HL-60 granulocytic cells; conditions: HL-60 granulocytic cells (Wang et al., 2009); cited from earlier work
p53 and its target genes = test: RT-qPCR and Western blot of p53 and its target genes in U2OS cells; format: cell-based, human; conditions: U2OS cells
Method: Western blot and immunostaining was performed essentially as described in Li, P. et al., Oncogene 29 (21), 3153-3162 (2010). Antibodies used in Western blot were anti-p53 (Sigma), anti-PAD4, anti-p21 (Sigma), anti-PUMA (Calbiochem), anti-SESN2 (Abeam), anti-p70S6K (Cell Signaling), anti-p70S6K-pT389 (Cell Signaling), anti-LC3 (Cell Signaling) and anti-β-actin (Sigma) at appropriate dilutions. Anti-LC3B antibody (Cell Signaling) was used for immunostaining. DNA was stained by the DNA dye Hoechst.
RNA was extracted using RNeasy Mini Kit (Qiagen) per manufacturer's instructions. 1 μg RNA was reverse transcribed into cDNA using qScript cDNA SuperMix (Quanta Biosciences) per manufacturer's instructions. Quantitative PCR was performed using SYBR Green SuperMix (Quanta Biosciences) in StepOnePlus Real-Time PCR System (Applied Biosystems). FIG. 10 is a graph showing p53 and its target gene expression induced in S180 cells by YW3-56 in a concentration dependent manner.
U2OS and S-180 cells were cultured in Dulbecco modified Eagle medium (DMEM) supplemented with 10% fetal bovine serum and 1% penicillin-streptomycin in a 5% CO2 incubator. U2OS p53-shRNA and U2OS Ctrl-shRNA cells were generated as described in Li, P. et al., Regulation of p53 target gene expression by peptidylarginine deiminase 4. Mol Cell Bial 28 (15), 4745-4758 (2008). Concentrations and duration of YW3-56 treatment were performed as specified in the figures and text. For starvation assay, U2OS cells were first cultured in serum-free DMEM for 16 hr, 10% fetal bovine serum and different concentrations of YW3-56 was then added back and cells were further incubated for 8 hr before further analyses. SESN2 siRNA (Santa Cruz) and GFP siRNA (Dharmacon Inc.) were transfected into U2OS cells using the XtremeGene siRNA transfection reagents (Roche Inc.). Cells were incubated in the presence of the siRNA for 48 hr before adding YW3-56 and further incubated for 8 hr before analyses.
The relative abundance of each gene is compared with β-actin as a reference. Increase in several p53 target genes, such as p21, GADD45, PUMA, OKL38, DRAM, and Sestrin2, is detected after YW3-88 treatment at 12 μM concentration. […] Increase in p21 and PUMA proteins is detected.

[6] = read-out: 50% inhibition PAD4 activity

Row | Compound | NET formation, percentage of neutrophils [2] [%^5] | Histone citrullination, percentage of positive neutrophils [2] [%^5] | Enlarged nucleus, percentage of neutrophils [2] [%^5] | Enlarged nucleus, percentage of neutrophils [3] | Histone citrullination, percentage of positive neutrophils [3] | NET formation, percentage of neutrophils [3] | IC50 ([4]; Homo sapiens) [µM] | IC50 (PAD4; [6]) [µM] | further results
1 | O=C(CCCCCCC(=O)Nc1ccccc1)NO [SAHA, suberoylanilide hydroxamic acid, reference compound] | – | – | – | – | – | – | – | – | growth of S180 tumor relative to control group (S180 tumor): ~44.6%; mouse growth and vital organ size ([1]; daily i.p. injection for 1 week): Neither SAHA alone nor mixtures of YW3-56 and SAHA impair
2 | COc1cccc2c1C(=O)c1c(O)c3c(c(O)c1C2=O)C[C@@](O)(C(=O)CO)C[C@@H]3O[C@H]1C[C@H](N)[C@H](O)[C@H](C)O1 [doxorubicin] | – | – | – | – | – | – | – | – | size of spleen relative to control mice ([1]; doxorubicin 2 mg/kg i.p. daily for 1 week): ~50%
3 | lipopolysaccharides [LPS] | 9.5 ± 0.5 | 42.3 ± 3.9 | 23.4 ± 2.7 | U.D. | U.D. | U.D. | – | – | nuclear area increase in size (swelling nuclei) ([2]; PAD4+/+ neutrophils after LPS treatment, NIH image J): ~3.5 fold
4 | OO [Structure H2O2, H2O2] | 3 ± 0.3 | 48.3 ± 5.4 | 13.4 ± 1.4 | U.D. | U.D. | U.D. | – | – | –
5 | CN(C)c1ccc2cc(C(=O)N[C@@H](CCCNC(=N)CCl)C(=O)NCc3ccc(NC(=O)CCCNC(=O)CCCCC4SCC5NC(=O)NC54)cc3)ccc2c1 (some centres unmarked) [YW4-15] | – | – | – | – | – | – | 20 to 50 | – | IC50 (PAD4): 1 to 5 µM
6 | NC(=O)[C@H](CCCN=C(N)CCl)NC(=O)c1ccccc1 [Cl-amidine] | 0.32 ± 0.3 | 8.1 ± 1.3 | 1.2 ± 0.2 | U.D. | U.D. | U.D. | – | – | IC50 [4]: 150 to 200 µM; histone H3 citrullination and chromatin decondensation induced by LPS ([2]; pretreatment of PAD4+/+ mouse neutrophils): significantly decreases; formation of NET-like structure [5]: represses the formation of NET-like structure
7 | N=C(CCl)NCCC[C@H](NC(=O)c1ccccc1)C(=O)NCc1ccccc1 [BL1-07] | – | – | – | – | – | – | 10 to 20 | > 20 | induction of p53 and its target genes (p53 and its target genes; even at higher concentrations): less potent
8 | N=C(CCl)NCCC[C@H](NC(=O)c1cccc(-c2ccccc2)c1)C(=O)NCc1ccccc1 [YW4-03] | – | – | – | – | – | – | 2.5 to 5 | ~5 | U2OS cell growth in MTT assay [4]: abolished cell growth
9 | N=C(CCl)NCCC[C@H](NC(=O)c1ccc(-c2ccccc2)cc1)C(=O)NCc1ccccc1 [YW3-88] | – | – | – | – | – | – | ~10 | > 20 | U2OS cell growth in MTT assay [4]: abolished cell growth; p21 and PUMA proteins by Western blot (p53 and its target genes): Increase; p53 target gene mRNA (p21, GADD45, PUMA, OKL38, DRAM, Sestrin2) (p53 and its target genes; 12 μM): Increase
10 | CCCCCCCCCCCCCC(=O)O[C@@H]1[C@@H](C)[C@@]2(O)[C@@H](C=C(CO)C[C@]3(O)C(=O)C(C)=C[C@@H]23)[C@@H]2C(C)(C)[C@]12OC(C)=O [PMA, phorbol myristate acetate] | 2.7 ± 0.5 | 48.5 ± 3 | 10.9 ± 0.3 | U.D. | U.D. | U.D. | – | – | –
